{
  "source": "paper PMC12455130",
  "about": "“Multifunctional molecular agent for tau-targeted combinational therapy of Alzheimer’s disease” (The Journal of Biological Chemistry, 2025)",
  "key": {"[1]": {"assay": "UV-visible titration and Job's plot, coordination to Cu2+", "format": "physicochemical", "details": "for Job's plot isosbestic point, mol fraction of Cu2+: 5 mM total in DMSO; for coordination stoichiometry with Cu2+: Job's method, 5 mM in DMSO", "protocol": "The UV–visible spectrum was used to reveal their coordination properties to Cu^2+. […] The increased absorption at 481 nm and 475 nm (Fig. 3, A and B, inset) definitely indicated the complexation of 4GA–Cu^2+ and 2GA–Cu^2+, respectively. The coordination stoichiometry of 4GA and 2GA with Cu^2+ was determined by Job’s plot analysis (Fig. 3, C and D). […] However, their macrocyclic precursors (cyclen and N-methylated cyclen 2ME]) were evaluated to coordinate with Cu^2+ by 1:1 mode (Fig. S9). The different coordination mode with Cu^2+ was supposed to be the synergistic coordination effects of galloyl side arms, in addition to the central azacrown structure.\nThe chelating studies were performed on Hitachi U-2900 UV–visible spectrophotometer with a 10-mm quartz cell. For titration experiment, the UV absorption of test compound (1 mM in DMSO) was recorded in the presence of CuCl2 (0–6 equivalents of Cu^2+ for 4GA, 0–5 equivalents of Cu^2+ for 2GA, respectively). For Job’s method, a series of solution was prepared in which the total concentration of compound and Cu^2+ was fixed (5 mM in DMSO), but their proportions of ether component varied between 0% and 100%, and the UV spectra were analyzed to determine the ratio of ligand–Cu^2+.\nFigure S9. The chemical structure of cyclen derivates (upper), and the determination of the stoichiometry of complex (A) cyclen-Cu^2+, (B) 1ME-Cu^2+, (C) 2ME-Cu^2+, (D) 3ME-Cu^2+, (E) 4ME-Cu^2+ (5 mM) by Job’s method."}, "[2]": {"assay": "Stability in Hepes by UV-visible absorption", "format": "physicochemical", "details": "Hepes 50 mM, pH 7.4, 0.2% DMSO; 10 μM, 37 °C; 72 h", "protocol": "Therefore, in the following experiments, they were first dissolved in DMSO and further diluted in an excess of buffer. […] Logically, 1,4,7,10-tetramethyl-1,4,7,10-tetraazacyclododecane (4ME) and GA (compound structure was shown in Fig. S1) are considered as the precursor of 4GA and 2GA and therefore used as a comparative study to confirm whether the ancillary ligand had any effect on aggregation.\nFigure S8. The stability of 4GA (A) and 2GA (B) in HEPES (50 mM, pH 7.4, 0.2% DMSO) verified by UV-vis absorption spectroscopy. All sample concentrations were 10 μM and kept at 37℃ in atmosphere."}},
  "data": [
    {"compound": "O=C(c1cc(O)c(O)c(O)c1)N1CCN(C(=O)c2cc(O)c(O)c(O)c2)CCN(C(=O)c2cc(O)c(O)c(O)c2)CCN(C(=O)c2cc(O)c(O)c(O)c2)CC1", "note": "[4GA, (1,4,7,10-tetraazacyclododecane-1,4,7,10-tetrayl)tetrakis((3,4,5-trihydroxyphenyl)methanone)]", "values": [
      {"measurement": "Job's plot isosbestic point, mol fraction of Cu2+", "setting": "[1]", "value": 0.7, "unit": "mol fraction"},
      {"measurement": "coordination stoichiometry with Cu2+", "setting": "[1]", "value": "can bind with two Cu^2+ ions"},
      {"measurement": "stability in buffer", "setting": "[2]", "value": "remain stable at 72 h"}
    ]},
    {"compound": "CN1CCN(C(=O)c2cc(O)c(O)c(O)c2)CCN(C)CCN(C(=O)c2cc(O)c(O)c(O)c2)CC1", "note": "[2GA, (4,10-dimethyl-1,4,7,10-tetraazacyclododecane-1,7-diyl)bis((3,4,5-trihydroxyphenyl)methanone)]", "values": [
      {"measurement": "Job's plot isosbestic point, mol fraction of Cu2+", "setting": "[1]", "value": 0.7, "unit": "mol fraction"},
      {"measurement": "coordination stoichiometry with Cu2+", "setting": "[1]", "value": "can bind with two Cu^2+ ions"},
      {"measurement": "stability in buffer", "setting": "[2]", "value": "remain stable at 72 h"}
    ]}
  ]
}
